{
  "source": "patent US20240075033A1",
  "about": "“ALK5 INHIBITORS FOR TREATING MYELODYSPLASTIC SYNDROME” (Sumitomo Pharma Oncology, Inc., priority 2019, published 2024)",
  "key": {"[1]": {"assay": "Hygroscopicity (DVS tests)", "format": "physicochemical", "details": "for Hygroscopicity (%): water uptake at 25° C./80% RH"}, "[2]": {"assay": "Solid-state stability under 40° C./75% RH for one week", "format": "physicochemical"}, "ALK5 [3]": {"target": "T1, ALK5 (Homo sapiens, UniProt P36897)", "T1 sequence (P36897 34-503)": "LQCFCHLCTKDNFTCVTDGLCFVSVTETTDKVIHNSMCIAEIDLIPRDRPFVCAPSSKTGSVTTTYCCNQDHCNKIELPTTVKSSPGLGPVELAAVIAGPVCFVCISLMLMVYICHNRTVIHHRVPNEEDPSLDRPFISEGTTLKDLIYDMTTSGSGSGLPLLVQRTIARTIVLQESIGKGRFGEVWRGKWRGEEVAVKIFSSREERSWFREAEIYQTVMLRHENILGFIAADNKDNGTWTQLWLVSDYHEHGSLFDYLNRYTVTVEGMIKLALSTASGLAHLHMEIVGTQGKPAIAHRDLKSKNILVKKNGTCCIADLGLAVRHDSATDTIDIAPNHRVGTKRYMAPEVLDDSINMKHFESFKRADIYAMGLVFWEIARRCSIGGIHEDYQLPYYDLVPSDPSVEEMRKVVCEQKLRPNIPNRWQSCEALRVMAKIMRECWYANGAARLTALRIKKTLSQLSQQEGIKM", "assay": "ALK5 nanobret assay in HEK293 cells transfected with ALK5-Nanoluc fusion", "format": "binding", "details": "luciferase tagged ALK5, fluorescent tracer competition (BRET), structure (I) tested as HCl salt", "experimental": "An HCl salt of the compound of structure (I) was tested in an ALK5 nanobret assay. HEK293 cells were transfected with the ALK5-Nanoluc fusion (Promega) vector, which encodes for a luciferase tagged form of ALK5. For testing of the compound of structure (I), transfected cells were pretreated with drug. Subsequently, a fluorescent tracer was added and the fluorescence signal was measured.\nIn this assay, luminescence develops via the nanoluciferase tagged ALK5, which can transfer signal via bioluminescence energy transfer (BRET) to the tracer, yielding a fluorescent signal."}, "ALK5 [4]": {"target": "T1, ALK5", "assay": "Rhabdomyosarcoma (RD) cell SMAD reporter (RDSR) assay", "format": "cell-based", "design": "The RD cell line was transfected with the pGL4.48(luc2P/SBE/Hygro) vector; endogenous in cells; host or cells: RD rhabdomyosarcoma cells stably transfected with the SBE-luciferase reporter only", "details": "RD cells transfected with pGL4.48(luc2P/SBE/Hygro) vector, pretreated with drug, induced with 50 pg/mL TGFβ1 for up to 24 hours; structure (I) tested as HCl salt"}, "[5]": {"assay": "Kinetic solubility in pH 2, 5, and 7 buffers", "format": "physicochemical", "details": "for Kinetic Solubility: in pH 2, 5 and 7 buffers, compared with freebase Form A"}},
  "note": "Structures can show the parent of a compound that is named as a salt. Where two headings read alike, the source gives them in different places.",
  "data": [
    {"compound": "COc1cc(Nc2nccc(Nc3cccnc3-c3ccccn3)n2)ccc1N1CCN(C)CC1", "note": "[Freebase Form A]", "values": [
      {"measurement": "form change after DVS tests", "setting": "[1]", "value": "no form change"},
      {"measurement": "Hygroscopicity (%)", "setting": "[1]", "value": "(0.60) %"},
      {"measurement": "Solid-state Stability", "setting": "[2]", "value": "Good physicochemical properties under"}
    ]},
    {"compound": "COc1cc(Nc2nccc(Nc3cccnc3-c3ccccn3)n2)ccc1N1CCN(C)CC1", "note": "[compound of structure (I)]", "values": [
      {"measurement": "IC50", "setting": "ALK5 [3]", "value": 2.3, "unit": "µM"},
      {"measurement": "IC50", "setting": "ALK5 [4]", "value": 0.309, "unit": "µM"}
    ]},
    {"compound": "COc1cc(Nc2nccc(Nc3cccnc3-c3ccccn3)n2)ccc1N1CCN(C)CC1", "note": "[HCl Salt Form A]", "values": [
      {"measurement": "form change after DVS tests", "setting": "[1]", "value": "no form change"},
      {"measurement": "Hygroscopicity", "setting": "[1]; class based on water uptake at 25° C./80% RH", "value": "Slightly hygroscopic"},
      {"measurement": "Hygroscopicity (%)", "setting": "[1]", "value": "(0.86) %"},
      {"measurement": "Solid-state Stability", "setting": "[2]", "value": "Good physicochemical properties under"},
      {"measurement": "Solid-state Stability", "setting": "[2]; listed as HCl salt Form A", "value": "good physicochemical properties"},
      {"measurement": "Kinetic Solubility", "setting": "[5]", "value": "increased solubility"},
      {"measurement": "Kinetic Solubility", "setting": "[5]; listed as HCl Form A", "value": "HCl Form A showed increased solubility"},
      {"measurement": "disproportionation", "setting": "[5]; pH 7 buffer", "value": "disproportionation was observed"}
    ]}
  ]
}
